This assay has as its target T1, mTOR (mTORC1) (Homo sapiens, UniProt P42345).
T1 construct: with raptor (mTORC1 complex)
Briefly: MSD electrochemiluminescent assay of p4E-BP1 T37/T46 in SUP-B15 cells, with immunoblot. Type of assay: cell-based. (In general: In western blotting, separated proteins are transferred to a membrane and probed.)

A word on the EC50: it is the concentration needed to bring the measured effect to its halfway point. A higher EC50 goes with a less potent agent.

In turn, `CO[C@H]1C[C@@H]2CC[C@@H](C)[C@@](O)(O2)C(=O)C(=O)N2CCCC[C@H]2C(=O)O[C@H]([C@H](C)C[C@@H]2CC[C@@H](OCCCCc3cn(CCOCCOCCOCCOCCOCCOCCOCCOCCC(=O)NCCCCn4nc(-c5cc6cc(O)ccc6[nH]5)c5c(N)ncnc54)nn3)[C@H](OC)C2)CC(=O)[C@H](C)/C=C(\C)[C@@H](O)[C@@H](OC)C(=O)[C@H](C)C[C@H](C)/C=C/C=C/C=C/1C` [RMC-4627] displayed an EC50 of 2 nM.

The record behind these values is paper PMC8366290, “Efficacy of a Novel Bi-Steric mTORC1 Inhibitor in Models of B-Cell Acute Lymphoblastic Leukemia” (Frontiers in Oncology, 2021).
